# Reference: patent publication US9650423B2, “Long peptides of 22-45 amino acid residues that induce and/or enhance antigen specific immune responses” (priority 2000, dated 2017)
# Residues, ends and D or L forms follow the SMILES beside them.
# What was measured:
# [1] = system: HPV16 E7-specific T-helper clones; assay: HPV16 E7-specific Th-clones: proliferation and IFNγ production; format: cell-based, human; settings: Th-clone from HLA-DR15, 4 and DQ6,7 positive PBMC raised against peptide E741-62
# Method: Peptide-specific T-cell bulk cultures were generated as described previously (van der Burg et al., 1999) using either the E7 22-mer or E7 35-mer peptides. Specific proliferation was measured by incubation of 50,000 responders with an equal amount of irradiated (30Gy) APC (autologous PBMC unless indicated otherwise) and peptide or protein as indicated. E7-peptide and -protein-specific bulk T-cells were cloned by limiting dilution as described previously (van der Burg et al., 1999).
# To determine specific excretion of cytokines, T-cell clones were stimulated by incubation of 50.000 T-cells with an equal amount of APC (30Gy) together with 10 μg/ml peptide, control peptide, E7 protein or control protein as indicated. After 24 hours of incubation, supernatant was harvested and replicate wells were pooled. Cytokine production was measured by Enzyme-Linked Immunosorbent Assay (ELISA) as described previously (van der Burg et al., 1999).
# HLA-DR4 (DRB*0401) = assay: HLA-DR-peptide binding assay; set-up: species or system human; settings: HPV16-E7 22-mer peptides; >70 indicates undetectable binding; read-out: Binding DR4, IC50
# HLA-DR1 (DRB*0101) = target: T1, HLA-DR1 (DRB*0101) (Homo sapiens, UniProt P01903+P01911, A100R/D57E/F55L/F60I/F76Y/I96L/L162R/M171V/P40L/Q125E/R42F/V115G/Y59C); assay: biochemical; format: binding; settings: read-out: Binding DR1, IC50
# T1 construct: endogenous in cells; host or cells: LG2.1 B-lymphoblastic cell line, homozygous for HLA-DR
# HLA-DR7 (DRB1*0701) = HLA-DR7 (DRB1*0701) (Homo sapiens, UniProt P01903+P01911, A100R/A102G/A103Q/D57E/D86V/E43K/F76Y/K127E/L162R/M171V/P40G/Q125H/Q99D/R33Q/R42Y/R54Q/S133A/S66F/T210M/V115G/Y107V/Y59L/Y89S); settings: read-out: Binding DR7, IC50
# HLA-DR2 (DRB1*0201) = assay: HLA-DR-peptide binding assay; set-up: species or system human; settings: HPV16-E7 22-mer peptides; >70 indicates undetectable binding; read-out: Binding DR2, IC50
# HLA-DR 1, 2, 3, 4 and 7 = assay: HLA-DR-peptide binding assay, summary over the molecules tested; set-up: species or system human; settings: E7 peptides tested on HLA-DR 1, 2, 3, 4 and 7
# Method: The analysis of peptide binding to purified DR molecules was performed using N-terminally fluorescence-labelled standard peptides.
# HLA-DR3 (DRB*0301) = assay: HLA-DR-peptide binding assay; set-up: species or system human; settings: HPV16-E7 22-mer peptides; >70 indicates undetectable binding; read-out: Binding DR3, IC50
# [2] = system: PBMC of HLA-DR1 positive blood donors; assay: Proliferation of PBMC stimulated with long E6 peptides; format: cell-based, human; settings: two HLA-DR1 positive donors, stimulated with pool of two 35-mer peptides covering E6 109-158
# Method: Furthermore, PBMC of two different HLA-DR1 positive blood donors were stimulated with a pool of two long 35-mer peptides that together covered E6 109-158. […] A CD4+ T-helper clone derived from one of these bulks was analysed further and specifically proliferated and produced IFNγ when stimulated with HPV16 E6 peptide and HPV16 E6 protein in a HLA-DR1 restricted manner (FIG. 16).
# FIGS. 16a-16d depict a peptide E6127-158 induced T-cell response that recognizes naturally processed Ag. PBMC from a healthy HLA-DR1 positive blood donor were stimulated four times with peptide E6127-158. FIGS. 16a and 16b are entitled E6 127-158 stimulated HLA-DR1+PBMC. Proliferation of the bulk T-cell culture (top, left, 16a) and IFNγ production (top, right, 16b) is depicted. FIGS. 16c and 16d are entitled E6 127-158 stimulated PBMC derived clone 9 HLA-DR restriction in proliferation and IFNγ production. The specific proliferation (bottom, left, 16c) and IFNγ production (bottom, right, 16d) of the T-helper clone, derived from the bulk T-cell culture, and HLA-restriction when stimulated with E6127-158, or E6 protein is depicted. (See, also, FIGS. 1a-1d and associated descriptions).
# Ad5E1-expressing tumors = settings: Toes et al., 1996a, 1996b; cited from earlier work
compound,measurement,setting,value
CC[C@H](C)[C@H](NC(=O)[C@H](CC(N)=O)NC(=O)[C@H](Cc1ccc(O)cc1)NC(=O)[C@H](Cc1c[nH]cn1)NC(=O)[C@H](C)NC(=O)[C@H](CCCNC(=N)N)NC(=O)[C@H](CC(=O)O)NC(=O)[C@@H]1CCCN1C(=O)[C@H](CCC(=O)O)NC(=O)[C@H](C)NC(=O)[C@H](CCC(N)=O)NC(=O)CNC(=O)[C@H](C)NC(=O)[C@@H]1CCCN1)C(=O)N[C@H](C(=O)N[C@H](C(=O)N[C@@H](Cc1ccccc1)C(=O)N[C@@H](CS)C(=O)N[C@@H](CS)C(=O)N[C@@H](CCCCN)C(=O)N[C@@H](CS)C(=O)N[C@@H](CC(=O)O)C(=O)O)[C@@H](C)O)C(C)C [E7 41-62] (H-PAGQAEPDRAHYNIVTFCCKCD-OH; N-terminus and C-terminus assumed),response of HLA-DR15 restricted Th-clone to pulsed APC,[1],specifically respond
same,IC50,HLA-DR4 (DRB*0401),38 µM
same,IC50,HLA-DR1 (DRB*0101),7.4 µM
same,IC50,HLA-DR7 (DRB1*0701),> 70 µM
same,IC50,HLA-DR2 (DRB1*0201),50 µM
same,HLA-DR molecules bound,"HLA-DR 1, 2, 3, 4 and 7","bound to DR1, 2, 3 and 4"
same,IC50,HLA-DR3 (DRB*0301),55 µM
"E6 121-142: 22-mer peptide, amino acids 121-142 of HPV16 E6 protein (EKQRHLDKKQRFHNIRGRWTGR; UniProt P03126 121-142, looked up, fragment)",specific proliferation of PBMC,[2],proliferated specifically
"E6 127-158: peptide, amino acids 127-158 of HPV16 E6 protein (DKKQRFHNIRGRWTGRCMSCCRSSRTRRETQL)",specific proliferation of PBMC,[2],proliferated specifically
E6 protein: recombinant HPV16-E6 protein produced in E. coli (DKKQRFHNIRGRWTGRCMSCCRSSRTRRETQL) [reference compound],specific proliferation of PBMC,[2],proliferated specifically
SGPSNTPPEI (minimal E1A-derived CTL epitope),effect of peptide vaccination on outgrowth of Ad5E1-expressing tumors,Ad5E1-expressing tumors,enhances rather than inhibits the growth
